Where two headings read alike, the source gives them in different places.
Key:
ConA [1] = molecular target: T1, ConA (Canavalia ensiformis, UniProt P02866); conditions: cited from earlier work
ConA [2] = molecular target: T1, ConA
Procedure: To explore whether the interaction of ConA with the core trimannose leads to aggregation in free solution, dynamic light scattering (DLS) measurements were performed. […] The TRIS buffer was 10 mM TRIS, 1 M NaCl, 1 mM CaCl2, 1 mM MnCl2, at pH 7.4. The dextran was 2 MDa and used as received from Sigma.
As controls, solutions of the individual components were also scanned to determine the particle size in the absence of aggregation. The final concentration was 3 μM for the competing ligand and 3 μM for ConA. Negative controls were run for each competing ligand (3 μM) without ConA present. ConA was also independently added to a separate control cuvette (3 μM). All solutions were in TRIS buffer and were filtered prior to combining the solutions. After 12 hours, the solutions were mixed to allow for the re-suspension of any settled material and dynamic light scattering studies were performed. The reported data is the average particle size as determined by percent-volume.

In the case of `O=C[C@H](O)[C@@H](O)[C@@H](O)[C@H](O)CO` [galactose], the “affinity to ConA” value (ConA [1]) is listed as “no affinity”.

In the case of `OC[C@H]1O[C@H](OC[C@H]2OC(O)[C@@H](O)[C@@H](O[C@H]3O[C@H](CO)[C@@H](O)[C@H](O)[C@@H]3O)[C@@H]2O)[C@@H](O)[C@@H](O)[C@@H]1O` (stereo partly drawn) [trimannose, 3,6-Di-O-(α-D-mannopyranosyl)-D-mannopyranose], the “average size of particles in solution with ConA” value (ConA [2]; 3 μM ligand, 3 μM ConA, TRIS buffer, 12 hours, 22° C., DLS) is listed as “did not increased in size”, the “aggregation when paired with ConA” value (ConA [2]; summary statement, DLS study) is listed as “no aggregation” and the “affinity to ConA” value (ConA [1]; previously shown / literature value) is listed as roughly 330000 M⁻¹.

In the case of methyl mannose, the “binding affinity to ConA relative to glucose” value (ConA [1]; known value) is given as 20-40 times.
